Data on 12 compounds can be found in US20230233690A1, “ANDROGEN RECEPTOR PROTEIN DEGRADERS” (THE REGENTS OF THE UNIVERSITY OF MICHIGAN, priority 2020, published 2023).

This assay addresses T1, AR protein (Homo sapiens, UniProt P10275).
T1 construct: endogenous in cells; host or cells: VCaP
T1 sequence (P10275 1-920): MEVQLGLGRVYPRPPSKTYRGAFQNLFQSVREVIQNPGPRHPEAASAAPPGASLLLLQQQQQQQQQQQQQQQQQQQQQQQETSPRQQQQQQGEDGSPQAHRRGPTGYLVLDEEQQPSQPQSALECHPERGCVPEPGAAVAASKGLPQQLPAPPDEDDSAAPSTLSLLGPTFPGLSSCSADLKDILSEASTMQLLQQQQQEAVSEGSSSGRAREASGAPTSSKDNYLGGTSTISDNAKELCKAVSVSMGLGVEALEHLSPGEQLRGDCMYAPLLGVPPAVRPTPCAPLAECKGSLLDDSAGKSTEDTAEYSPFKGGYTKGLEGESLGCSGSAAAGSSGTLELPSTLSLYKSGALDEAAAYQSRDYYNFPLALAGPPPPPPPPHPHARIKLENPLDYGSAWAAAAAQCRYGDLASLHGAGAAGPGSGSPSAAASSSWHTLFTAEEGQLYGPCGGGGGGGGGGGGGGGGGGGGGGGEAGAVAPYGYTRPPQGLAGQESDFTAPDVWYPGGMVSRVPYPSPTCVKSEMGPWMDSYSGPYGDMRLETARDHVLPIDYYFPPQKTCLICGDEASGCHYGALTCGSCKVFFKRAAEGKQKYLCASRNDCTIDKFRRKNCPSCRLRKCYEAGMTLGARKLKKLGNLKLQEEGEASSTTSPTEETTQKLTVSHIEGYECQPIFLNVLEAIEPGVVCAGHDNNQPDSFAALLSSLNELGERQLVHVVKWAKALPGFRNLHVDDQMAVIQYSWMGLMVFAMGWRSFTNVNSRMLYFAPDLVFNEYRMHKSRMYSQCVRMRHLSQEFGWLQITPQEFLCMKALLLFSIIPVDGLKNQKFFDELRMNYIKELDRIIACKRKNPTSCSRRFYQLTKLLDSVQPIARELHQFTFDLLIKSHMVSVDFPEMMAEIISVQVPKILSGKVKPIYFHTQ
The assay is described as follows: Western blotting of AR protein degradation in VCaP cells. It is filed as cell-based. On the procedure: The treated cells were lysed with RIPA buffer. […] GAPDH was used as a loading control.
Bands were quantified with ImageJ software. The relative numbers of each band obtained from normalization with its corresponding GAPDH level were compared with Prism 8 software. The DC50 values were produced from Prism 8, and the DC90 values were calculated with an equation=Bottom+(Top−Bottom)/(1+10^((Log EC50−X)*HillSlope) based on DC50 and Hillslope values.
Background: In western blotting, separated proteins are transferred to a membrane and probed.

For the compound `N#Cc1ccc(O[C@H]2CC[C@H](NC(=O)c3ccc(NCCCCCNc4ccc5c(c4)C(=O)N(C4CCC(=O)NC4=O)C5=O)cc3)CC2)cc1Cl` (stereo partly drawn) [compound 211, N-((1r,4r)-4-(3-chloro-4-cyanophenoxy)cyclohexyl)-4-((5-((2-(2,6-dioxopiperidin-3-yl)-1,3-dioxoisoindolin-5-yl)amino)pentyl)amino)benzamide], the “% AR protein degradation in VCaP Cells” value by setting is: (0.001 μM) 59%; (0.01 μM) 82%; (0.1 μM) 82%; (1 μM) 79%.

In the case of `N#Cc1ccc(O[C@H]2CC[C@H](NC(=O)c3ccc(NCCCCCCNc4ccc5c(c4)C(=O)N(C4CCC(=O)NC4=O)C5=O)cc3)CC2)cc1Cl` (stereo partly drawn) [compound 212, N-((1r,4r)-4-(3-chloro-4-cyanophenoxy)cyclohexyl)-4-((6-((2-(2,6-dioxopiperidin-3-yl)-1,3-dioxoisoindolin-5-yl)amino)hexyl)amino)benzamide], the “% AR protein degradation in VCaP Cells” value is on record as 25% (0.001 μM), 70% (0.01 μM), 86% (0.1 μM) and 82% (1 μM).

Consider `N#Cc1ccc(O[C@H]2CC[C@H](NC(=O)c3ccc(NCCCCCCCNc4ccc5c(c4)C(=O)N(C4CCC(=O)NC4=O)C5=O)cc3)CC2)cc1Cl` (stereo partly drawn) [compound 213, N-((1r,4r)-4-(3-chloro-4-cyanophenoxy)cyclohexyl)-4-((7-((2-(2,6-dioxopiperidin-3-yl)-1,3-dioxoisoindolin-5-yl)amino)heptyl)amino)benzamide], for which the “% AR protein degradation in VCaP Cells” value runs as follows: (0.001 μM) 17%; (0.01 μM) 40%; (0.1 μM) 62%; (1 μM) 38%.

For the compound `N#Cc1ccc(O[C@H]2CC[C@H](NC(=O)c3ccc(NCCCCCCCCNc4ccc5c(c4)C(=O)N(C4CCC(=O)NC4=O)C5=O)cc3)CC2)cc1Cl` (stereo partly drawn) [compound 214, N-((1r,4r)-4-(3-chloro-4-cyanophenoxy)cyclohexyl)-4-((8-((2-(2,6-dioxopiperidin-3-yl)-1,3-dioxoisoindolin-5-yl)amino)octyl)amino)benzamide], the “% AR protein degradation in VCaP Cells” value (0.001 μM) was found to be 27%, the “% AR protein degradation in VCaP Cells” value (0.01 μM) is reported as 43%, the “% AR protein degradation in VCaP Cells” value (0.1 μM) is reported as 65% and the “% AR protein degradation in VCaP Cells” value (1 μM) was found to be 46%.

Consider `N#Cc1ccc(O[C@H]2CC[C@H](NC(=O)c3ccc(NCCCCCCCCCNc4ccc5c(c4)C(=O)N(C4CCC(=O)NC4=O)C5=O)cc3)CC2)cc1Cl` (stereo partly drawn) [compound 215, N-((1r,4r)-4-(3-chloro-4-cyanophenoxy)cyclohexyl)-4-((9-((2-(2,6-dioxopiperidin-3-yl)-1,3-dioxoisoindolin-5-yl)amino)nonyl)amino)benzamide], for which the “% AR protein degradation in VCaP Cells” value is recorded as 6% (0.001 μM), 35% (0.01 μM), 58% (0.1 μM) and 53% (1 μM).

As to `N#Cc1ccc(O[C@H]2CC[C@H](NC(=O)c3ccc(NCCCCCCCCCCNc4ccc5c(c4)C(=O)N(C4CCC(=O)NC4=O)C5=O)cc3)CC2)cc1Cl` (stereo partly drawn) [compound 216, N-((1r,4r)-4-(3-chloro-4-cyanophenoxy)cyclohexyl)-4-((10-((2-(2,6-dioxopiperidin-3-yl)-1,3-dioxoisoindolin-5-yl)amino)decyl)amino)benzamide], the “% AR protein degradation in VCaP Cells” value is, setting by setting: (0.001 μM) −11%; (0.01 μM) −9%; (0.1 μM) 1%; (1 μM) 22%.

With `N#Cc1ccc(O[C@H]2CC[C@H](NC(=O)c3ccc(NCCCCCCCCCCCNc4ccc5c(c4)C(=O)N(C4CCC(=O)NC4=O)C5=O)cc3)CC2)cc1Cl` (stereo partly drawn) [compound 217, N-((1r,4r)-4-(3-chloro-4-cyanophenoxy)cyclohexyl)-4-((11-((2-(2,6-dioxopiperidin-3-yl)-1,3-dioxoisoindolin-5-yl)amino)undecyl)amino)benzamide], the “% AR protein degradation in VCaP Cells” value is, setting by setting: (0.001 μM) 7%; (0.01 μM) 17%; (0.1 μM) 39%; (1 μM) 35%.

Regarding `N#Cc1ccc(O[C@H]2CC[C@H](NC(=O)c3ccc(N4CCN(CCNc5ccc6c(c5)C(=O)N(C5CCC(=O)NC5=O)C6=O)CC4)cc3)CC2)cc1Cl` (stereo partly drawn) [compound 218, N-((1r,4r)-4-(3-chloro-4-cyanophenoxy)cyclohexyl)-4-(4-(2-((2-(2,6-dioxopiperidin-3-yl)-1,3-dioxoisoindolin-5-yl)amino)ethyl)piperazin-1-yl)benzamide], the “% AR protein degradation in VCaP Cells” value amounted to 6% (0.001 μM), 32% (0.01 μM), 39% (0.1 μM) and 21% (1 μM).

Turning to `N#Cc1ccc(O[C@H]2CC[C@H](NC(=O)c3ccc(N4CCN(CCCNc5ccc6c(c5)C(=O)N(C5CCC(=O)NC5=O)C6=O)CC4)cc3)CC2)cc1Cl` (stereo partly drawn) [compound 219, N-((1r,4r)-4-(3-chloro-4-cyanophenoxy)cyclohexyl)-4-(4-(3-((2-(2,6-dioxopiperidin-3-yl)-1,3-dioxoisoindolin-5-yl)amino)propyl)piperazin-1-yl)benzamide], the “% AR protein degradation in VCaP Cells” value by setting is: (0.001 μM) 18%; (0.01 μM) 69%; (0.1 μM) 80%; (1 μM) 59%.

For `N#Cc1ccc(O[C@H]2CC[C@H](NC(=O)c3ccc(N4CCN(CCCCNc5ccc6c(c5)C(=O)N(C5CCC(=O)NC5=O)C6=O)CC4)cc3)CC2)cc1Cl` (stereo partly drawn) [compound 220, N-((1r,4r)-4-(3-chloro-4-cyanophenoxy)cyclohexyl)-4-(4-(4-((2-(2,6-dioxopiperidin-3-yl)-1,3-dioxoisoindolin-5-yl)amino)butyl)piperazin-1-yl)benzamide], the “% AR protein degradation in VCaP Cells” value was 18% (0.001 μM), 60% (0.01 μM), 80% (0.1 μM) and 62% (1 μM).

Consider `N#Cc1ccc(O[C@H]2CC[C@H](NC(=O)c3ccc(N4CCN(CCCCCNc5ccc6c(c5)C(=O)N(C5CCC(=O)NC5=O)C6=O)CC4)cc3)CC2)cc1Cl` (stereo partly drawn) [compound 221, N-((1r,4r)-4-(3-chloro-4-cyanophenoxy)cyclohexyl)-4-(4-(5-((2-(2,6-dioxopiperidin-3-yl)-1,3-dioxoisoindolin-5-yl)amino)pentyl)piperazin-1-yl)benzamide], for which the “% AR protein degradation in VCaP Cells” value by setting is: (0.001 μM) 17%; (0.01 μM) 22%; (0.1 μM) 51%; (1 μM) 34%.

With `N#Cc1ccc(O[C@H]2CC[C@H](NC(=O)c3ccc(N4CCN(CC5CN(c6ccc7c(c6)C(=O)N(C6CCC(=O)NC6=O)C7=O)C5)CC4)cc3)CC2)cc1Cl` (stereo partly drawn) [compound 224, N-((1r,4r)-4-(3-chloro-4-cyanophenoxy)cyclohexyl)-4-(4-((1-(2-(2,6-dioxopiperidin-3-yl)-1,3-dioxoisoindolin-5-yl)azetidin-3-yl)methyl)piperazin-1-yl)benzamide], the “% AR protein degradation in VCaP Cells” value came out at 38% (0.001 μM), 79% (0.01 μM), 85% (0.1 μM) and 86% (1 μM).
